In ChEMBL document CHEMBL3414444, “Antiplasmodial activity: the first proof of inhibition of heme crystallization by marine isonitriles” (Eur J Med Chem, 2015):

Experiments:
Plasmodium falciparum [1] = assay: Antiplasmodial activity against Plasmodium falciparum K1; type: functional, organism-based
Plasmodium falciparum [2] = assay: Antiplasmodial activity against Plasmodium falciparum D6; type: functional, organism-based
[3] = Inhibition of beta-hematin formation after 3 to 5 mins by EBHIA assay; type: physicochemical
Plasmodium falciparum [4] = assay: Antiplasmodial activity against Plasmodium falciparum W2; type: functional, organism-based
Plasmodium falciparum [5] = assay: Antiplasmodial activity against Plasmodium falciparum NF54; type: functional, organism-based

Row | SMILES | IC50 (Plasmodium falciparum [1]) [nM] | IC50 (Plasmodium falciparum [2]) [nM] | inhibition (INH) [3] [%] | IC50 (Plasmodium falciparum [5]) [nM] | IC50 (Plasmodium falciparum [4]) [nM]
1 | [C-]#[N+][C@@]1(C)CC[C@H]2[C@H]3[C@@H]4[C@H](C[C@@H](C)[C@@](C)(N=C=O)[C@H]4CC[C@@H]31)C[C@@H]2C | 9 | – | – | – | –
2 | [C-]#[N+][C@@]1(C)CC[C@H]2[C@H]3[C@H]4C(=CC(C)(C)C[C@@H]4C[C@@H]2C)CC[C@@H]31 | 24 | 84 | 26 | – | 24
3 | [C-]#[N+][C@@]1(C)CC[C@H]2[C@H]3[C@@H](C(=C)CC[C@@H]31)[C@@H](C=C(C)C)C[C@@H]2C | – | – | 14 | – | 423
4 | CCN(CC)CCCC(C)Nc1ccnc2cc(Cl)ccc12 (stereo not drawn) [CHLOROQUINE] | – | – | 4 | – | –

Now from value to molecule, other results behind:

Row | IC50 (Plasmodium falciparum [1]) [nM] | IC50 (Plasmodium falciparum [2]) [nM] | inhibition (INH) [3] [%] | IC50 (Plasmodium falciparum [5]) [nM] | SMILES | IC50 (Plasmodium falciparum [4]) [nM]
5 | > 30000 | – | – | – | CC(C)=CCC[C@@H](C)[C@H]1CC[C@](C)(N=C=S)[C@H]2CCC(C)=C[C@H]12 | –
6 | – | – | 62 | – | [C-]#[N+][C@]1(C)CC[C@H](/C(C)=C\C=C\C(C)C)CC1 | –
7 | 5700 | – | 71 | 5700 | CC1=CC2C(CC1)[C@](C)(N=C=S)CC[C@@H]2C(C)C (stereo partly drawn) | –
